These are literature values, as cited in US6858612B1, “Use of tetrahydropteridine derivatives as no synthase inhibitors” (Vasopharm Buitech GmbH, priority 1994, dated 2005).

For this data set, the system named is NO synthases.

For the molecule `CC1CNc2nc(N)[nH]c(=O)c2N1` (centres unmarked) [6-methyl-5,6,7,8-tetrahydropterin], the “effect on NO synthase activity” value (Hevel and Marletta, Giovanelli et al. only at relatively high concentrations) is listed as “increase in NO synthase activity”.
Turning to `C[C@H](O)[C@H](O)C1=Nc2c(nc(N)[nH]c2=O)NC1` [7,8-dihydrobiopterin], under “literature reports (Kwon et al., Giovanelli et al., Overfeld et al.), concentration-dependent”, the “effect on NO production” value was “Stimulation of NO production”.
